The record followed here is US20260022142A1, “MACROCYCLIC IMMUNOMODULATORS” (Bristol-Myers Squibb Company, priority 2022, published 2026).

The term IC50 denotes the point on the concentration scale where inhibition reaches its midpoint.

Structures are written as SMILES. Bridge positions count the residues as written; N and C are the ends. Square brackets hold non-standard residues; d marks the D form. Peptide text beside a SMILES is read from it. * marks the point of attachment. ξ: configuration not given here. Bip = N[C@@H](Cc1ccc(-c2ccccc2)cc1)C(=O)O; hArg = N=C(N)NCCCC[C@H](N)C(=O)O; Cha = N[C@@H](CC1CCCCC1)C(=O)O; Cit = NC(=O)NCCC[C@H](N)C(=O)O; Thr(3ξ) = CC(O)[C@H](N)C(=O)O; 12Ado = NCCCCCCCCCCCC(=O)O; Carboxymethyl = O=C(O)C*; Orn = NCCC[C@H](N)C(=O)O; Aun = NCCCCCCCCCCC(=O)O; Dab = NCC[C@H](N)C(=O)O; Dap = NC[C@H](N)C(=O)O; AEEA = NCCOCCOCC(=O)O

This assay deals with T1, PD-1/PD-L1 interaction (PE-labeled human PD-L1-Ig binding to Jurkat cell line over-expressing human PD-1) (Homo sapiens, UniProt Q15116).
T1 construct: expressed in transfected cells; host or cells: Jurkat
T1 sequence (Q15116 25-288): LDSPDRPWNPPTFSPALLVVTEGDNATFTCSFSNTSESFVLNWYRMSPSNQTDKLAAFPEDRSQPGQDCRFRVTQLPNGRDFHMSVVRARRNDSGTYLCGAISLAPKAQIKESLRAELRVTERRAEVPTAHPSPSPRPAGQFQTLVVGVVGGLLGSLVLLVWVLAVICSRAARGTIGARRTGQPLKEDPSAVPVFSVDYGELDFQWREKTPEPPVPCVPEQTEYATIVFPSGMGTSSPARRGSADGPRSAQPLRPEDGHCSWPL
Nature of the assay: Jurkat-PD-1 Cell Binding High-Content Screening Assay (CBA). The class given is cell-based. Particulars: Jurkat cell line over-expressing human PD-1; PE-labeled PD-L1-Ig 20 nM final; read-out: Jurkat hPD1-PDL1 IC50. Summed up:
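Human PD-L1-Ig carrying a covalent PE label on its Ig tag serves as the probe, applied at 20 nM final to compound-treated (2 h, 37° C) Jurkat-hPD-1 cells in medium with 10% fetal calf serum. After one hour, fixation and nuclear staining precede high-content image analysis.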
Take `CC(C)C[C@H]1NC(=O)[C@H](CCCN)NC(=O)[C@H](CCCNC(N)=O)NC(=O)[C@H](Cc2ccc(-c3ccccc3)cc2)NC(=O)[C@H](C(C)C)NC(=O)[C@H](Cc2c[nH]c3ccccc23)NC(=O)[C@H](CC(=O)O)NC(=O)[C@H](Cc2ccc(OCC(=O)O)cc2)NC(=O)[C@H](CN)NC(=O)CSC[C@@H](C(=O)NCCOCCOCC(=O)N[C@@H](CCCCN)C(=O)NCCCCCCCCCCC(=O)O)NC(=O)[C@H](CCCNC(N)=O)NC(=O)[C@H](C(C)C)NC(=O)[C@H](CC2CCCCC2)NC(=O)[C@H](CCN)NC1=O` [Compound 3146] ({CH2CO}-[Dap]Y(Carboxymethyl)DWV[Bip][Cit][Orn][dL][Dab][Cha]V[Cit]C[AEEA]K[Aun]-OH; thioether N-14): the IC50 was found to be 0.0078 µM.

For `CC(C)C[C@H]1NC(=O)[C@H](CCCN)NC(=O)[C@H](C(C)C)NC(=O)[C@H](Cc2ccc(-c3ccccc3)cc2)NC(=O)[C@H](C(C)C)NC(=O)[C@H](Cc2c[nH]c3ccccc23)NC(=O)[C@H](CC(=O)O)NC(=O)[C@H](Cc2ccc(OCC(=O)O)cc2)NC(=O)[C@H](CN)NC(=O)CSC[C@@H](C(=O)NCCOCCOCC(=O)N[C@@H](CCCCN)C(=O)NCCCCCCCCCCC(=O)O)NC(=O)[C@H](C(C)O)NC(=O)[C@H](C(C)C)NC(=O)[C@H](CC2CCCCC2)NC(=O)[C@H](CC(=O)O)NC1=O` (stereo partly drawn) [Compound 3147] ({CH2CO}-[Dap]Y(Carboxymethyl)DWV[Bip]V[Orn][dL]D[Cha]V[Thr(3ξ)]C[AEEA]K[Aun]-OH; thioether N-14), the half-maximal inhibitory concentration (IC50) came to 0.0297 µM.

As for `CC(C)C[C@H]1NC(=O)[C@H](CCCN)NC(=O)[C@H](C(C)C)NC(=O)[C@H](Cc2ccc(-c3ccccc3)cc2)NC(=O)[C@H](C(C)C)NC(=O)[C@H](Cc2c[nH]c3ccccc23)NC(=O)[C@H](CC(=O)O)NC(=O)[C@H](Cc2ccc(OCC(=O)O)cc2)NC(=O)[C@H](CCCNC(N)=O)NC(=O)CSC[C@@H](C(=O)N[C@@H](CCCCN)C(=O)NCCCCCCCCCCC(=O)O)NC(=O)[C@H](C(C)O)NC(=O)[C@H](C(C)C)NC(=O)[C@H](CC2CCCCC2)NC(=O)[C@H](Cc2cnc[nH]2)NC1=O` (stereo partly drawn) [Compound 3148] ({CH2CO}-[Cit]Y(Carboxymethyl)DWV[Bip]V[Orn][dL]H[Cha]V[Thr(3ξ)]CK[Aun]-OH; thioether N-14), the IC50 was found to be 0.0567 µM.

Regarding `CC(C)C[C@H]1NC(=O)[C@H](CCCN)NC(=O)[C@H](C(C)C)NC(=O)[C@H](Cc2ccc(-c3ccccc3)cc2)NC(=O)[C@H](C(C)C)NC(=O)[C@H](Cc2c[nH]c3ccccc23)NC(=O)[C@H](CC(=O)O)NC(=O)[C@H](Cc2ccc(OCC(=O)O)cc2)NC(=O)[C@H](CN)NC(=O)CSC[C@@H](C(=O)N[C@@H](CCCN)C(=O)NCCCCCCCCCCC(=O)O)NC(=O)[C@H](C(C)O)NC(=O)[C@H](C(C)C)NC(=O)[C@H](CC2CCCCC2)NC(=O)[C@H](CC(N)=O)NC1=O` (stereo partly drawn) [Compound 3149] ({CH2CO}-[Dap]Y(Carboxymethyl)DWV[Bip]V[Orn][dL]N[Cha]V[Thr(3ξ)]C[Orn][Aun]-OH; thioether N-14), the IC50 amounted to 0.0465 µM.

Take `CC(C)C[C@H]1NC(=O)[C@H](CCCN)NC(=O)[C@H](C(C)C)NC(=O)[C@H](Cc2ccc(-c3ccccc3)cc2)NC(=O)[C@H](C(C)C)NC(=O)[C@H](Cc2c[nH]c3ccccc23)NC(=O)[C@H](CC(=O)O)NC(=O)[C@H](Cc2ccc(OCC(=O)O)cc2)NC(=O)[C@H](CN)NC(=O)CSC[C@@H](C(=O)N[C@@H](CCCCN)C(=O)NCCCCCCCCCCCC(=O)O)NC(=O)[C@H](C(C)O)NC(=O)[C@H](C(C)C)NC(=O)[C@H](CC2CCCCC2)NC(=O)[C@H](CCCNC(=N)N)NC1=O` (stereo partly drawn) [Compound 3150] ({CH2CO}-[Dap]Y(Carboxymethyl)DWV[Bip]V[Orn][dL]R[Cha]V[Thr(3ξ)]CK[12Ado]-OH; thioether N-14): the IC50 came out at 0.0587 µM.

In the case of `CC(C)C[C@H]1NC(=O)[C@H](CCCN)NC(=O)[C@H](C(C)C)NC(=O)[C@H](Cc2ccc(-c3ccccc3)cc2)NC(=O)[C@H](C(C)C)NC(=O)[C@H](Cc2c[nH]c3ccccc23)NC(=O)[C@H](CC(=O)O)NC(=O)[C@H](Cc2ccc(OCC(=O)O)cc2)NC(=O)[C@H](CCCCNC(=N)N)NC(=O)CSC[C@@H](C(=O)N[C@@H](CCN)C(=O)NCCCCCCCCCCC(=O)O)NC(=O)[C@H](C(C)O)NC(=O)[C@H](C(C)C)NC(=O)[C@H](CC2CCCCC2)NC(=O)[C@H](Cc2cnc[nH]2)NC1=O` (stereo partly drawn) [Compound 3151] ({CH2CO}-[hArg]Y(Carboxymethyl)DWV[Bip]V[Orn][dL]H[Cha]V[Thr(3ξ)]C[Dab][Aun]-OH; thioether N-14), the IC50 is 0.0341 µM.

As for `CC(C)C[C@H]1NC(=O)[C@H](CCCN)NC(=O)[C@H](C(C)C)NC(=O)[C@H](Cc2ccc(-c3ccccc3)cc2)NC(=O)[C@H](C(C)C)NC(=O)[C@H](Cc2c[nH]c3ccccc23)NC(=O)[C@H](CC(=O)O)NC(=O)[C@H](Cc2ccc(OCC(=O)O)cc2)NC(=O)[C@H](CCCCNC(=N)N)NC(=O)CSC[C@@H](C(=O)N[C@@H](CN)C(=O)NCCCCCCCCCCC(=O)O)NC(=O)[C@H](C(C)O)NC(=O)[C@H](C(C)C)NC(=O)[C@H](CC2CCCCC2)NC(=O)[C@H](Cc2cnc[nH]2)NC1=O` (stereo partly drawn) [Compound 3152] ({CH2CO}-[hArg]Y(Carboxymethyl)DWV[Bip]V[Orn][dL]H[Cha]V[Thr(3ξ)]C[Dap][Aun]-OH; thioether N-14), the IC50 was 0.0467 µM.

As for `CC(C)C[C@H]1NC(=O)[C@H](CCCN)NC(=O)[C@H](C(C)C)NC(=O)[C@H](Cc2ccc(-c3ccccc3)cc2)NC(=O)[C@H](C(C)C)NC(=O)[C@H](Cc2c[nH]c3ccccc23)NC(=O)[C@H](CC(=O)O)NC(=O)[C@H](Cc2ccc(OCC(=O)O)cc2)NC(=O)[C@H](CCCCNC(=N)N)NC(=O)CSC[C@@H](C(=O)NCCOCCOCC(=O)N[C@@H](CCCN)C(=O)NCCCCCCCCCCCC(=O)O)NC(=O)[C@H](CO)NC(=O)[C@H](C(C)C)NC(=O)[C@H](CC2CCCCC2)NC(=O)[C@H](CCN)NC1=O` [Compound 3153] ({CH2CO}-[hArg]Y(Carboxymethyl)DWV[Bip]V[Orn][dL][Dab][Cha]VSC[AEEA][Orn][12Ado]-OH; thioether N-14), the IC50 was determined as 0.012 µM.

Regarding `CC(C)C[C@H]1NC(=O)[C@H](CCCN)NC(=O)[C@H](C(C)C)NC(=O)[C@H](Cc2ccc(-c3ccccc3)cc2)NC(=O)[C@H](C(C)C)NC(=O)[C@H](Cc2c[nH]c3ccccc23)NC(=O)[C@H](CC(=O)O)NC(=O)[C@H](Cc2ccc(OCC(=O)O)cc2)NC(=O)[C@H](CCCCNC(=N)N)NC(=O)CSC[C@@H](C(=O)NCCOCCOCC(=O)N[C@@H](CCCCN)C(=O)NCCCCCCCCCCCC(=O)O)NC(=O)[C@H](CO)NC(=O)[C@H](C(C)C)NC(=O)[C@H](CC2CCCCC2)NC(=O)[C@H](CCN)NC1=O` [Compound 3154] ({CH2CO}-[hArg]Y(Carboxymethyl)DWV[Bip]V[Orn][dL][Dab][Cha]VSC[AEEA]K[12Ado]-OH; thioether N-14), the IC50 was 0.0149 µM.

`CC(C)C[C@H]1NC(=O)[C@H](CCCN)NC(=O)[C@H](C(C)C)NC(=O)[C@H](Cc2ccc(-c3ccccc3)cc2)NC(=O)[C@H](C(C)C)NC(=O)[C@H](Cc2c[nH]c3ccccc23)NC(=O)[C@H](CC(=O)O)NC(=O)[C@H](Cc2ccc(OCC(=O)O)cc2)NC(=O)[C@H](CCCCNC(=N)N)NC(=O)CSC[C@@H](C(=O)N[C@@H](CCCCN)C(=O)NCCCCCCCCCCCC(=O)O)NC(=O)[C@H](CO)NC(=O)[C@H](C(C)C)NC(=O)[C@H](CC2CCCCC2)NC(=O)[C@H](Cc2cnc[nH]2)NC1=O` [Compound 3155] ({CH2CO}-[hArg]Y(Carboxymethyl)DWV[Bip]V[Orn][dL]H[Cha]VSCK[12Ado]-OH; thioether N-14): the IC50 was 0.0446 µM.

As for `CC(C)C[C@H]1NC(=O)[C@H](CCCN)NC(=O)[C@H](C(C)C)NC(=O)[C@H](Cc2ccc(-c3ccccc3)cc2)NC(=O)[C@H](C(C)C)NC(=O)[C@H](Cc2c[nH]c3ccccc23)NC(=O)[C@H](CC(=O)O)NC(=O)[C@H](Cc2ccc(OCC(=O)O)cc2)NC(=O)[C@H](CCCCNC(=N)N)NC(=O)CSC[C@@H](C(=O)N[C@@H](CCCN)C(=O)NCCCCCCCCCCCC(=O)O)NC(=O)[C@H](CO)NC(=O)[C@H](C(C)C)NC(=O)[C@H](CC2CCCCC2)NC(=O)[C@H](CC(N)=O)NC1=O` [Compound 3156] ({CH2CO}-[hArg]Y(Carboxymethyl)DWV[Bip]V[Orn][dL]N[Cha]VSC[Orn][12Ado]-OH; thioether N-14), the IC50 was 0.0345 µM.

In the case of `CC(C)C[C@H]1NC(=O)[C@H](CCCN)NC(=O)[C@H](C(C)C)NC(=O)[C@H](Cc2ccc(-c3ccccc3)cc2)NC(=O)[C@H](C(C)C)NC(=O)[C@H](Cc2c[nH]c3ccccc23)NC(=O)[C@H](CC(=O)O)NC(=O)[C@H](CCCCNC(=N)N)NC(=O)[C@H](Cc2ccc(OCC(=O)O)cc2)NC(=O)CSC[C@@H](C(=O)NCCOCCOCC(=O)N[C@@H](CCCCN)C(=O)NCCCCCCCCCCCC(=O)O)NC(=O)[C@H](CCN)NC(=O)[C@H](C(C)C)NC(=O)[C@H](CC2CCCCC2)NC(=O)[C@H](Cc2cnc[nH]2)NC1=O` [Compound 3158] ({CH2CO}-Y(Carboxymethyl)[hArg]DWV[Bip]V[Orn][dL]H[Cha]V[Dab]C[AEEA]K[12Ado]-OH; thioether N-14), the IC50 was 0.107 µM.

As to `CC(C)C[C@H]1NC(=O)[C@H](CCCN)NC(=O)[C@H](C(C)C)NC(=O)[C@H](Cc2ccc(-c3ccccc3)cc2)NC(=O)[C@H](C(C)C)NC(=O)[C@H](Cc2c[nH]c3ccccc23)NC(=O)[C@H](CC(=O)O)NC(=O)[C@H](Cc2ccc(OCC(=O)O)cc2)NC(=O)[C@H](CCCCNC(=N)N)NC(=O)CSC[C@@H](C(=O)N[C@@H](CCCN)C(=O)NCCCCCCCCCCC(=O)O)NC(=O)[C@H](C(C)O)NC(=O)[C@H](C(C)C)NC(=O)[C@H](CC2CCCCC2)NC(=O)[C@H](Cc2cnc[nH]2)NC1=O` (stereo partly drawn) [Compound 3159] ({CH2CO}-[hArg]Y(Carboxymethyl)DWV[Bip]V[Orn][dL]H[Cha]V[Thr(3ξ)]C[Orn][Aun]-OH; thioether N-14), the IC50 was found to be 0.0426 µM.
